What was measured:
[1] = Bulk density, graduated cylinder; format: physicochemical
[2] = cited from earlier work
[3] = Tapped density, Caleva tapped density tester; format: physicochemical; settings: after tapping
Description: The artesunate powders were then passed through a No. 18, 1.00 mm sieve and then added to a 10 mL Cole Parmer graduated cylinder. The graduated cylinder containing the artesunate powders was placed on a Caleva tapped density tester. The samples in the graduated cylinder were then subjected to the following sequence: 10 taps, 500 additional taps, 1250 additional taps, and 1250 additional taps. A volume was taken at the end of each set of taps, and when the volume was consistent for two sets in a row, the measurement was terminated. This final volume was then used to calculate the tapped density. Two replicate measurements were taken, and an average value was calculated.

[4] = SEM images of caking / agglomeration; format: physicochemical
Description: SEM images were collected using a Phenom XL Desktop SEM equipped with a CeB6 electron source (see FIG. 6). Phenom User Interface version 1.4 was used to acquire and save the images. Detailed image parameters are recorded in the footer of each image. Powder sample preparation for proper SEM results is known to those skilled in the art, and mainly relies on a proper monolayer of particles. These can be prepared with: the flick method, wherein a cotton swab is used to disperse particles onto a sample support by the “flick of a finger”; drop casting, where liquid solvents transfer particles onto a sample stub; or the dish method, where particles are spread over the area of a petri dish or similar flat surface using a spatula. A Nebula Particle Dispenser may also be used to prepare a uniform layer of powder. Although it is desirable to avoid agglomeration, the example as described herein sought to determine when agglomeration occurs at particular humidity levels. The samples tested herein were prepared with the flick method.

[5] = Tapped density, Caleva tapped density tester; format: physicochemical; settings: 35% RH exposure ~24 h; after tapping
[6] = Dynamic Vapor Sorption (DVS) moisture absorbance; format: physicochemical; settings: 25 °C
Description: The instruments were calibrated with standard weights and a sodium bromide standard for humidity. One sample was equilibrated 50% RH for at least 5 days prior to analysis, while the other sample was equilibrated to 20% RH for at least 5 days prior to analysis. Approximately 10 to 20 mg of the powder samples were loaded into metal-coated quartz pans for analysis. The samples were analyzed at 25° C. in 10% RH steps from 5 to 95% RH (adsorption cycle) and from 95 to 5% RH (desorption cycle). The movement from one step to the next occurred either after satisfying the equilibrium criterion of 0.01% weight change in 30 minutes or, if the equilibrium criterion was not met, after 90 minutes. The percent weight change values were calculated using Microsoft Excel®2016. The results of this example are provided in Tables 6 and 7 and depicted in FIG. 1 (Sample Equilibrated to 20% RH) and FIG. 2 (Sample Equilibrated to 50% RH).

[7] = Angle of repose, USP <1174>; format: physicochemical
Description: Angle of repose analyses were performed on artesunate powders based upon USP <1174> and under controlled relative humidity conditions. Polytetrafluoroethylene (PTFE) funnels with 8, 10 and 12 mm openings (i.e., Funnel 1, Funnel 2 and Funnel 3, respectively) were used in conjunction with a stainless steel receiving cylinder (Ø=30 mm). Powder samples were placed in the funnel while the funnel opening was closed with a glass slide. Once all the sample powder was loaded in the funnel, the glass slide was removed to allow powder to land on the cylinder below. The top and side of the funnel were tapped to enable the sample powder to drop down. The funnel height was maintained approximately 2-4 cm from the top of the powder pile to minimize the impact of falling powder on the tip of the cone. After the powder cone was built, height of the material forming the cone (h) and the radius (r) of the base were measured by a metal ruler. The angle of repose (θ) was calculated as follows: tan (θ)=h/r. Results were only considered valid when a symmetrical cone of powder was formed. Triplicate tests were attempted for each size of the funnels with the same amount of material being used.

[8] = cited from earlier work; remark: listed apart in the source
[9] = Static charge, Newtry static meter; format: physicochemical
Description: Static charge measurements were performed using a Newtry static meter. The powders were accumulated onto a piece of weigh paper and the surface gently leveled. The static meter was held approximately 25 millimeters from the surface of the material to obtain a reading. Three replicate measurements were taken, and an average was calculated.

[10] = 10% RH exposure, at least five days
[11] = 20% RH exposure, at least five days
[12] = 30% RH exposure, at least five days
[13] = 40% RH exposure, at least five days
[14] = 50% RH exposure, at least five days

Average Bulk Density ([1]; 20% RH exposure ~24 h): 0.203 g/mL
Bulk Density 1 ([1]; 20% RH exposure ~24 h): 0.193 g/mL
Bulk Density 2 ([1]; 20% RH exposure ~24 h): 0.231 g/mL
Average Bulk Density ([1]; 50% RH exposure ~24 h): 0.203 g/mL
Bulk Density 1 ([1]; 50% RH exposure ~24 h): 0.200 g/mL
Bulk Density 2 ([1]; 50% RH exposure ~24 h): 0.208 g/mL
Average Bulk Density (Tapped Densities of Powder Samples) ([3]; 20% RH exposure ~24 h): 0.303 g/mL
Bulk Density 1 (Tapped Densities of Powder Samples) ([3]; 20% RH exposure ~24 h): 0.307 g/mL
Bulk Density 2 (Tapped Densities of Powder Samples) ([3]; 20% RH exposure ~24 h): 0.318 g/mL
Bulk Density 3 (Tapped Densities of Powder Samples) ([3]; 20% RH exposure ~24 h): 0.283 g/mL
Average Bulk Density (Tapped Densities of Powder Samples) ([3]; 35% RH exposure ~24 h): 0.318 g/mL
Bulk Density 1 (Tapped Densities of Powder Samples) ([3]; 35% RH exposure ~24 h): 0.317 g/mL
Bulk Density 2 (Tapped Densities of Powder Samples) ([3]; 35% RH exposure ~24 h): 0.300 g/mL
Average Bulk Density (Tapped Densities of Powder Samples) ([3]; 50% RH exposure ~24 h): 0.317 g/mL
Bulk Density 1 (Tapped Densities of Powder Samples) ([3]; 50% RH exposure ~24 h): 0.320 g/mL
Bulk Density 2 (Tapped Densities of Powder Samples) ([3]; 50% RH exposure ~24 h): 0.312 g/mL
Bulk Density 3 (Tapped Densities of Powder Samples) ([3]; 50% RH exposure ~24 h): 0.319 g/mL
caking / agglomeration in SEM images ([4]; 20% RH (FIG. 6)): strong caking, or agglomeration
caking in SEM images ([4]; 35% RH (FIG. 7)): less caking
agglomeration / caking in SEM images ([4]; 50% RH (FIG. 8)): significant agglomeration, or caking
Bulk Density 3 (Tapped Densities of Powder Samples) [5]: 0.337 g/mL
% change (DVS) ([6]; sample equilibrated to 20% RH, RH step 95, total 360 min): 100.08%
% change (DVS) ([6]; sample equilibrated to 20% RH, adsorption, RH step 5, total 0 min): 100.00%
% change (DVS) ([6]; sample equilibrated to 20% RH, adsorption, RH step 5, total 60 min): 100.00%
% change (DVS) ([6]; sample equilibrated to 20% RH, adsorption, RH step 15, total 90 min): 100.02%
% change (DVS) ([6]; sample equilibrated to 20% RH, adsorption, RH step 25, total 120 min): 100.02%
% change (DVS) ([6]; sample equilibrated to 20% RH, adsorption, RH step 35, total 150 min): 100.03%
% change (DVS) ([6]; sample equilibrated to 20% RH, adsorption, RH step 45, total 180 min): 100.03%
% change (DVS) ([6]; sample equilibrated to 20% RH, adsorption, RH step 55, total 210 min): 100.03%
% change (DVS) ([6]; sample equilibrated to 20% RH, adsorption, RH step 65, total 240 min): 100.04%
% change (DVS) ([6]; sample equilibrated to 20% RH, adsorption, RH step 75, total 270 min): 100.05%
% change (DVS) ([6]; sample equilibrated to 20% RH, adsorption, RH step 85, total 300 min): 100.06%
% change (DVS) ([6]; sample equilibrated to 20% RH, desorption, RH step 5, total 630 min): 100.04%
% change (DVS) ([6]; sample equilibrated to 20% RH, desorption, RH step 15, total 600 min): 100.04%
% change (DVS) ([6]; sample equilibrated to 20% RH, desorption, RH step 25, total 570 min): 100.04%
% change (DVS) ([6]; sample equilibrated to 20% RH, desorption, RH step 35, total 540 min): 100.04%
% change (DVS) ([6]; sample equilibrated to 20% RH, desorption, RH step 45, total 510 min): 100.05%
% change (DVS) ([6]; sample equilibrated to 20% RH, desorption, RH step 55, total 480 min): 100.06%
% change (DVS) ([6]; sample equilibrated to 20% RH, desorption, RH step 65, total 450 min): 100.06%
% change (DVS) ([6]; sample equilibrated to 20% RH, desorption, RH step 75, total 420 min): 100.06%
% change (DVS) ([6]; sample equilibrated to 20% RH, desorption, RH step 85, total 390 min): 100.07%
% change (DVS) ([6]; sample equilibrated to 50% RH, RH step 95, total 360 min): 100.08%
% change (DVS) ([6]; sample equilibrated to 50% RH, adsorption, RH step 5, total 0 min): 100.00%
% change (DVS) ([6]; sample equilibrated to 50% RH, adsorption, RH step 5, total 30 min): 100.01%
% change (DVS) ([6]; sample equilibrated to 50% RH, adsorption, RH step 15, total 60 min): 100.01%
% change (DVS) ([6]; sample equilibrated to 50% RH, adsorption, RH step 25, total 90 min): 100.01%
% change (DVS) ([6]; sample equilibrated to 50% RH, adsorption, RH step 35, total 120 min): 100.01%
% change (DVS) ([6]; sample equilibrated to 50% RH, adsorption, RH step 45, total 150 min): 100.02%
% change (DVS) ([6]; sample equilibrated to 50% RH, adsorption, RH step 55, total 180 min): 100.02%
% change (DVS) ([6]; sample equilibrated to 50% RH, adsorption, RH step 65, total 240 min): 100.03%
% change (DVS) ([6]; sample equilibrated to 50% RH, adsorption, RH step 75, total 270 min): 100.04%
% change (DVS) ([6]; sample equilibrated to 50% RH, adsorption, RH step 85, total 300 min): 100.05%
% change (DVS) ([6]; sample equilibrated to 50% RH, desorption, RH step 5, total 660 min): 100.02%
% change (DVS) ([6]; sample equilibrated to 50% RH, desorption, RH step 15, total 630 min): 100.02%
% change (DVS) ([6]; sample equilibrated to 50% RH, desorption, RH step 25, total 600 min): 100.02%
% change (DVS) ([6]; sample equilibrated to 50% RH, desorption, RH step 35, total 570 min): 100.02%
% change (DVS) ([6]; sample equilibrated to 50% RH, desorption, RH step 45, total 540 min): 100.03%
% change (DVS) ([6]; sample equilibrated to 50% RH, desorption, RH step 55, total 510 min): 100.04%
% change (DVS) ([6]; sample equilibrated to 50% RH, desorption, RH step 65, total 480 min): 100.05%
% change (DVS) ([6]; sample equilibrated to 50% RH, desorption, RH step 75, total 450 min): 100.05%
% change (DVS) ([6]; sample equilibrated to 50% RH, desorption, RH step 85, total 420 min): 100.06%
angle of repose ([7]; 35% RH, Average of Funnels 1-3): 39 degrees
angle of repose ([7]; 35% RH, Funnel 1 (8 mm opening)): 35 degrees
angle of repose ([7]; 35% RH, Funnel 2 (10 mm opening)): 38 degrees
angle of repose ([7]; 35% RH, Funnel 3 (12 mm opening)): 45 degrees
flow properties based on USP 1174 ([7]; 35% relative humidity): acceptable
angle of repose ([7]; 50% RH, Average of Funnels 1-3): 43 degrees
angle of repose ([7]; 50% RH, Funnel 1 (8 mm opening)): 42 degrees
angle of repose ([7]; 50% RH, Funnel 2 (10 mm opening)): 45 degrees
angle of repose ([7]; 50% RH, Funnel 3 (12 mm opening)): 42 degrees
flow property based on USP 1174 ([7]; 50% relative humidity): passable but may hang up
Average Static Reading [9, 10]: 0.36 kV
Static Reading 1 [9, 10]: 0.40 kV
Static Reading 2 [9, 10]: 0.38 kV
Static Reading 3 [9, 10]: 0.30 kV
Average Static Reading ([9]; 11% RH): 0.36 kV
Average Static Reading [9, 11]: 0.13 kV
Static Reading 1 [9, 11]: 0.12 kV
Static Reading 2 [9, 11]: 0.13 kV
Static Reading 3 [9, 11]: 0.13 kV
Average Static Reading ([9]; 22% RH): 0.13 kV
Average Static Reading [9, 12]: −0.04 kV
Static Reading 1 [9, 12]: −0.04 kV
Static Reading 2 [9, 12]: −0.04 kV
Static Reading 3 [9, 12]: −0.04 kV
Average Static Reading [9, 13]: 0.01 kV
Static Reading 1 [9, 13]: 0.02 kV
Static Reading 2 [9, 13]: 0.01 kV
Static Reading 3 [9, 13]: 0.00 kV
Average Static Reading [9, 14]: −0.05 kV
Static Reading 1 [9, 14]: −0.05 kV
Static Reading 2 [9, 14]: −0.05 kV
Static Reading 3 [9, 14]: −0.05 kV
SMILES: C[C@H]1[C@H](OC(=O)CCC(=O)O)O[C@@H]2O[C@@]3(C)CC[C@H]4[C@H](C)CC[C@@H]1[C@@]24OO3 [artesunate powder, 4-oxo-4-[[(1R,4S,5R,8S,9R,10S,12R,13R)-1,5,9-trimethyl-11,14,15,16-tetraoxatetracyclo[10.3.1.0^4,13.0^8,13]hexadecan-10-yl]oxy]butanoic acid]
solubility in organic solvents ([2]; organic solvents, such as acetone and methanol): soluble
solubility in water ([2]; water): slightly soluble
stability under basic and acidic conditions ([8]; basic and acidic conditions): unstable
degradation by moisture and heat ([8]; moisture and heat (Agnihotri J. et al, 2013)): susceptible to degradation
